Measurements reported in patent publication US6355619B1, “Peptide tumor cell growth inhibitors” (Board of Regents, The University of Texas System, priority 1996, dated 2002).

What was measured:
[1] = system: neutrophils; test: β-glucuronidase release from neutrophils without stimulant; type: cell-based, human; conditions: without any stimulant
Protocol: (§1) FIG. 8. The Effect of Ac-RRWWCR-NH2 (SEQ ID NO:1) on β-glucuronidase Release. Neutrophils pretreated with cytochalasin B were incubated with 100 nM IL-8 (●), 100 nM fMLP (▪), 100 nM C5a (_) or 100 nM leukotriene B4 ? or without any stimulant (◯) in the presence of increasing concentration of Ac-RRWWCR-NH2 (SEQ ID NO:1) for 30 min at 37° C. β-glucuronidase activity of supernatants were measured using phenolphthalein-glucuronic acid as substrate. Analysis of variance was used for multiple comparison.
(§2) Neutrophil enzyme release was studied by a modification of the method of Goldstein and colleagues (Goldstein et al., 1973). Cytochalasin B (Sigma Chemical Co.) was stored in dimethyl sulfoxide at a concentration of 5 mg/ml and was diluted to a concentration of 50 μg/ml in Hank's Balanced Salt Solution (HBSS) immediately before use. Cytochalasin B, 200 μl, was added to 1 ml of suspension of neutrophils, 6.25×10^6 cells/ml in HBSS, to achieve a final cytochalasin B concentration of […]. The solution was then incubated in 96 well plates at room temperature for 10 min. The stimulant, 100 μl, was added, and this cell suspension was incubated for 30 min at 37° C. The plates were centrifuged and 100 μl of supernatant was removed. […] After 16 hr incubation at 37° C., 200 μl of 0.2 M Glycine in 0.2 M NaCl, pH10.4 was added to each well and OD540 was measured as the enzyme activity.

[2] = target: T1, leukotriene B4 binding to human neutrophils (Homo sapiens, UniProt Q15722); test: Binding of 3H-leukotriene B4 to human neutrophils; conditions: 100 μM peptide; 0.4 nM 3H-labeled leukotriene B4
T1 construct: endogenous in cells; host or cells: human blood neutrophils
From the text: To examine the specificity of Ac-RRWWCR-NH2 (SEQ ID NO:1) on ligand-receptor binding, the inventors tested whether the peptide reduced the binding of human ^125I-C5a or ^3H-leukotriene B4 to human neutrophils.
Recombinant human fifth component of complement (C5a) (Sigma Chemical Co., St. Louis, Mo.) was radioiodinated enzymatically using Enzymobead (Bio Rad, Richmond, Calif.). Tritiated leukotriene B4 was purchased from Du Pont Co., Wilmington, Del. Binding assays for C5a and leukotriene B4 were performed as described for IL-8 binding in Example I, except that the buffers used were PBS containing 1 mM CaCl2, 0.5 mM MgCl2, 0.5% BSA, and HBSS containing 0.1% ovulabumin and 10 mM HEPES (pH7.3), respectively, as previously described (Braunwalder et al., 1992; Sherman et al., 1988). The radioactivity was measured with liquid scintillation counter for the leukotriene B4 assay. The binding of both ligands were saturable and inhibited by the non-labeled agonists in dose dependent manners.

[3] = system: fMLP-stimulated neutrophil enzyme release; test: β-glucuronidase release from neutrophils stimulated by fMLP; type: cell-based, human; conditions: 100 nM fMLP
Protocol: as §1, §2

[4] = system: neutrophils; test: Checkerboard analysis for chemotactic activity of the peptide itself; type: cell-based, human
Protocol: Chemotaxis was performed using the leading front method as described by Zigmond and Hirsh (1973). IL-8 or controls were placed in the lower well of a Boyden chamber. A five micron pore size, 100 μm. thick cellulose nitrate filter (Sartorius Filter,. Inc., San Francisco, Calif.) was placed on the surface and the chamber was then assembled. A 200 μl aliquot of the neutrophil preparation (1×10^6 cells/ml) in RPMI-1640 media containing 1% BSA was added to the top of the filter and incubated at 37° C. for 30 min. The filter was then fixed, stained and mounted on a glass microscope slide. The leading front was determined by the position of the leading two cells. The distance that the leading two cells had moved through the filter was measured for six fields on each filter. The measurements were made with four filters for each set of conditions.

[5] = Hep G2 culture, 100 μM peptide
Protocol: Analysis for the breakdown of Antileukinate in the culture of Hep G2 cells. A total concentration of tritium labeled and unlabeled Antileukinate of 100 μM, was added to the culture of Hep G2 cells. Aliquots of medium were removed at different times and chromatographed on an HPLC Bondapak C18 reversed phase column. The peptides were eluted using a gradient from 0.1% TFA to 80% acetonitrile in 0.1% TFA. One milliliter fractions were collected and measured for their radioactivity using a liquid scintillation counter. The chromatographs show the elution volume of the radioactivity at different times after addition to the cells.
Hs 294T and Hep G2 cells, 2×10^4 cell/well, were cultured in 24 well tissue culture plates for 24 hr. Then the culture media were replaced with media containing tritiated Antileukinate, 0.2 μCi, mixed with 100 μM unlabeled peptide in each well. The cells were then cultured for the indicated periods. The supernatants were collected and stored at −70° C. until use. The breakdown of Antileukinate during the cell culture was analyzed on high performance liquid chromatography (HPLC) using an analytical C18 reversed phase column (Waters Co., New Bedford, Mass.). […] One milliliter fractions were collected and measured for their radioactivity content using a liquid scintillation counter.

[6] = peptide below filter 1.0 μM, above filter 5.0 μM
[7] = peptide below filter 1.0 μM, above filter 12.5 μM
[8] = peptide below filter 1.0 μM, above filter 25.0 μM
[9] = peptide below filter 5.0 μM, above filter 1.0 μM
[10] = peptide below filter 5.0 μM, above filter 12.5 μM
[11] = peptide below filter 5.0 μM, above filter 25.0 μM
[12] = peptide below filter 12.5 μM, above filter 1.0 μM
[13] = peptide below filter 12.5 μM, above filter 5.0 μM
[14] = peptide below filter 12.5 μM, above filter 25.0 μM
[15] = peptide below filter 25.0 μM, above filter 1.0 μM
[16] = peptide below filter 25.0 μM, above filter 5.0 μM
[17] = peptide below filter 25.0 μM, above filter 12.5 μM

T1 sequence (Q15722 whole entry): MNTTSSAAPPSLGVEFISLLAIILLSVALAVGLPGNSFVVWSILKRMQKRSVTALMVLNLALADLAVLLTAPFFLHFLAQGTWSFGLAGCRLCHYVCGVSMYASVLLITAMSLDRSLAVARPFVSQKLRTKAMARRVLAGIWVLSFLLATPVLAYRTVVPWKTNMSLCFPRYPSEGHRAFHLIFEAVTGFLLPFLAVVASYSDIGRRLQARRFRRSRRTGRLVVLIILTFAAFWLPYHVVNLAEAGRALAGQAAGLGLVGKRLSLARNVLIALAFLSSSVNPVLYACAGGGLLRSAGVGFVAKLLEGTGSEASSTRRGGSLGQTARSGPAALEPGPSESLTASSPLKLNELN

## RRWWCR [Ac-RRWWCR-NH2]
[1]
  stimulation of β-glucuronidase release by the peptide itself: did not stimulate β-glucuronidase release
[2]
  effect on binding of leukotriene B4 to neutrophils: did not affect the binding
[3]
  effect on enzyme release stimulated by fMLP: did not affect the enzyme release
[4]
  chemotactic activity of the peptide (checkerboard analysis): not chemotactic for neutrophils
[4]; control studies, media alone
  effect on chemokinesis of neutrophils: had no effect on chemokinesis
[4]; peptide below filter 1.0 μM, above filter 1.0 μM
  migration, mean ± SD of experimental observations: 27.8 ± 5.5
[4]; [6]
  calculated migration expected if cells responded to absolute concentration, not gradient: 29.1
  migration, mean ± SD of experimental observations: 28.0 ± 4.7
[4]; [7]
  calculated migration expected if cells responded to absolute concentration, not gradient: 24.2
  migration, mean ± SD of experimental observations: 25.6 ± 4.0
[4]; [8]
  calculated migration expected if cells responded to absolute concentration, not gradient: 24.3
  migration, mean ± SD of experimental observations: 26.7 ± 6.3
[4]; [9]
  calculated migration expected if cells responded to absolute concentration, not gradient: 28.0
  migration, mean ± SD of experimental observations: 29.6 ± 6.3
[4]; peptide below filter 5.0 μM, above filter 5.0 μM
  migration, mean ± SD of experimental observations: 29.3 ± 7.2
[4]; [10]
  calculated migration expected if cells responded to absolute concentration, not gradient: 23.7
  migration, mean ± SD of experimental observations: 24.2 ± 5.4
[4]; [11]
  calculated migration expected if cells responded to absolute concentration, not gradient: 24.4
  migration, mean ± SD of experimental observations: 25.9 ± 6.7
[4]; [12]
  calculated migration expected if cells responded to absolute concentration, not gradient: 28.4
  migration, mean ± SD of experimental observations: 27.0 ± 5.5
[4]; [13]
  calculated migration expected if cells responded to absolute concentration, not gradient: 28.5
  migration, mean ± SD of experimental observations: 27.5 ± 4.8
[4]; peptide below filter 12.5 μM, above filter 12.5 μM
  migration, mean ± SD of experimental observations: 22.9 ± 5.9
[4]; [14]
  calculated migration expected if cells responded to absolute concentration, not gradient: 24.5
  migration, mean ± SD of experimental observations: 24.8 ± 5.8
[4]; [15]
  calculated migration expected if cells responded to absolute concentration, not gradient: 28.4
  migration, mean ± SD of experimental observations: 30.9 ± 4.7
[4]; [16]
  calculated migration expected if cells responded to absolute concentration, not gradient: 27.1
  migration, mean ± SD of experimental observations: 27.5 ± 4.9
[4]; [17]
  calculated migration expected if cells responded to absolute concentration, not gradient: 23.1
  migration, mean ± SD of experimental observations: 27.9 ± 4.8
[4]; peptide below filter 25.0 μM, above filter 25.0 μM
  migration, mean ± SD of experimental observations: 24.7 ± 3.8
[5]
  time within which the peptide is substantially eliminated from the culture: ≤ 24 h
[5]; after 24 hr
  decrease of the major radioactivity peak (intact peptide): more than 85%
